From paper PMC4764975, “Probing the enzyme kinetics, allosteric modulation and activation of α1- and α2-subunit-containing AMP-activated protein kinase (AMPK) heterotrimeric complexes by pharmacological and physiological activators” (Biochemical Journal, 2016)
Like-named read-outs stand apart in the source and are kept apart here.

Legend:
BAP-tagged AMPK α1β1γ1 = target: T1, BAP-tagged AMPK α1β1γ1 (Homo sapiens, UniProt P54619+Q13131+Q9Y478); test: SPR direct binding (Biacore)
T1 construct: Recombinant full-length AMPK heterotrimeric complexes α1β1γ1, α1β2γ1, α1β2γ3, α2β1γ1, α2β2γ1 and α2β2γ3 were cloned; 6X-His (N); AviTag (BAP); made in house; host or cells: E. coli (co-expressed with BirA)
Protocol: (§1) SPR experiments were performed on a Biacore™ 3000 instrument (GE Healthcare). BAP-tagged AMPK isoform (α1β1γ1, α1β2γ1, α2β2γ1, α2β2γ3) was captured on to a streptavidin sensor chip to levels ranging from 4000 to 6000 RU. […] Binding responses were processed using Scrubber 2 (BioLogic Software Pty Ltd) to zero, x-align, double reference and corrected for excluded volume effect of DMSO in the data. […] The compound was injected at a flow rate of 50 μl/min with total contact time of 120 s and dissociation time of 600 s. Rate parameters (kon, koff) and corresponding dissociation constant(KD=koff/kon) were determined by globally fitting all of the experimental data to a simple 1:1 interaction model using Biaeval software (GE Healthcare). To determine nt binding, 10 concentrations with 2-fold dilutions were tested in duplicate. The highest concentration tested was 2 mM. The compound was injected at a flow rate of 50 μl/min with total contact time of 120 s and dissociation time of 300 s. Equilibrium dissociation constant (KD) was determined using a steady-state affinity algorithm available within Scrubber.
(§2) We then compared the binding of nts (AMP, ADP and ATP) to α1β1γ1, α1β2γ1, α2β2γ1 and α2β2γ3 isoforms in the presence and absence of Mg^2+ and Stau, using SPR technique. […]

BAP-tagged AMPK α2β2γ1 = target: T2, BAP-tagged AMPK α2β2γ1 (Homo sapiens, UniProt O43741+P54619+P54646); test: SPR direct binding (Biacore)
T2 construct: Recombinant full-length AMPK heterotrimeric complexes α1β1γ1, α1β2γ1, α1β2γ3, α2β1γ1, α2β2γ1 and α2β2γ3 were cloned into a tricistronic vector system; 6X-His (N); made in house; host or cells: E. coli BL21-CodonPlus (DE3)-RIPL, co-expressed with BirA
Protocol: as §1, §2

BAP-tagged AMPK α1β2γ1 = target: T3, BAP-tagged AMPK α1β2γ1 (Homo sapiens, UniProt O43741+P54619+Q13131); test: SPR direct binding (Biacore)
T3 construct: Recombinant full-length AMPK heterotrimeric complexes α1β1γ1, α1β2γ1, α1β2γ3, α2β1γ1, α2β2γ1 and α2β2γ3 were cloned into a tricistronic vector system; 6X-His (N); made in house; host or cells: E. coli BL21-CodonPlus (DE3)-RIPL, co-expressed with BirA
Protocol: as §1
(§3) We then compared the binding of nts (AMP, ADP and ATP) to α1β1γ1, α1β2γ1, α2β2γ1 and α2β2γ3 isoforms in the presence and absence of Mg^2+ and Stau, using SPR technique.

BAP-tagged AMPK α2β2γ3 = target: T4, BAP-tagged AMPK α2β2γ3 (Homo sapiens, UniProt O43741+P54646+Q9UGI9); test: SPR direct binding (Biacore)
T4 construct: Recombinant full-length AMPK heterotrimeric complexes α1β1γ1, α1β2γ1, α1β2γ3, α2β1γ1, α2β2γ1 and α2β2γ3 were cloned into a tricistronic vector system; 6X-His (N); made in house; host or cells: E. coli BL21-CodonPlus (DE3)-RIPL, co-expressed with BirA
Protocol: as §1, §3

AMPK α1β1γ1 = target: T5, AMPK α1β1γ1 (Homo sapiens, UniProt P54619+Q13131+Q9Y478); test: Steady-state kinetics, radiometric SAMS assay; type: biochemical; settings: absence of AMP, SAMS fixed at ~10-fold Km, read-out: Km ATP
T5 construct: Recombinant full-length AMPK heterotrimeric complexes α1β1γ1, α1β2γ1, α1β2γ3, α2β1γ1, α2β2γ1 and α2β2γ3 were cloned; 6X-His (N); made in house; host or cells: E. coli BL21-CodonPlus (DE3)-RIPL
Protocol: (§4) The kinase activity of pAMPK was measured via AMPK-mediated incorporation of ^33phosphate from [^33P]ATP into the synthetic peptide called SAMS [31] using the radiometric assay as described before. […] Assay linearity was ensured by determining that <30% substrate was depleted for all concentrations tested. The Km values were obtained in the absence of AMP in the reaction. Data were fitted by non-linear regression to the Michaelis–Menten equation using GraphPad prism to obtain the kinetic parameters. The specific radioactivity of each isoform was determined at saturating concentrations of each substrate.

AMPK α1β2γ1 = target: T6, AMPK α1β2γ1 (Homo sapiens, UniProt O43741+P54619+Q13131); test: Steady-state kinetics, radiometric SAMS assay; type: biochemical; settings: absence of AMP, SAMS fixed at ~10-fold Km, read-out: Km ATP
T6 construct: Recombinant full-length AMPK heterotrimeric complexes α1β1γ1, α1β2γ1, α1β2γ3, α2β1γ1, α2β2γ1 and α2β2γ3 were cloned; 6X-His (N); made in house; host or cells: E. coli BL21-CodonPlus (DE3)-RIPL
Protocol: as §4

AMPK α1β2γ3 [1] = target: T7, AMPK α1β2γ3 (Homo sapiens, UniProt O43741+Q13131+Q9UGI9); test: Steady-state kinetics, radiometric SAMS assay; type: biochemical; settings: absence of AMP, SAMS fixed at ~10-fold Km, read-out: Km ATP
T7 construct: Recombinant full-length AMPK heterotrimeric complexes α1β1γ1, α1β2γ1, α1β2γ3, α2β1γ1, α2β2γ1 and α2β2γ3 were cloned; 6X-His (N); made in house; host or cells: E. coli BL21-CodonPlus (DE3)-RIPL
Protocol: as §4

AMPK α2β1γ1 [2] = target: T8, AMPK α2β1γ1 (Homo sapiens, UniProt P54619+P54646+Q9Y478); test: Steady-state kinetics, radiometric SAMS assay; type: biochemical; settings: absence of AMP, SAMS fixed at ~10-fold Km, read-out: Km ATP
T8 construct: Recombinant full-length AMPK heterotrimeric complexes α1β1γ1, α1β2γ1, α1β2γ3, α2β1γ1, α2β2γ1 and α2β2γ3 were cloned; 6X-His (N); made in house; host or cells: E. coli BL21-CodonPlus (DE3)-RIPL
Protocol: as §4

AMPK α2β2γ1 [3] = target: T9, AMPK α2β2γ1 (Homo sapiens, UniProt O43741+P54619+P54646); test: Steady-state kinetics, radiometric SAMS assay; type: biochemical; settings: absence of AMP, SAMS fixed at ~10-fold Km, read-out: Km ATP
T9 construct: Recombinant full-length AMPK heterotrimeric complexes α1β1γ1, α1β2γ1, α1β2γ3, α2β1γ1, α2β2γ1 and α2β2γ3 were cloned; 6X-His (N); made in house; host or cells: E. coli BL21-CodonPlus (DE3)-RIPL
Protocol: as §4

AMPK α2β2γ3 [4] = target: T10, AMPK α2β2γ3 (Homo sapiens, UniProt O43741+P54646+Q9UGI9); test: Steady-state kinetics, radiometric SAMS assay; type: biochemical; settings: absence of AMP, SAMS fixed at ~10-fold Km, read-out: Km ATP
T10 construct: Recombinant full-length AMPK heterotrimeric complexes α1β1γ1, α1β2γ1, α1β2γ3, α2β1γ1, α2β2γ1 and α2β2γ3 were cloned; 6X-His (N); made in house; host or cells: E. coli BL21-CodonPlus (DE3)-RIPL
Protocol: as §4

full-length, pAMPK = target: full-length, pAMPK; set-up: method as in PMID 21399626; settings: presence of Mg2+, cited from earlier work
[5] = target: T11, AMPK α1-kinase domain (α1-KD) (Homo sapiens, UniProt Q13131); test: Phosphatase (PP2Aα) sensitivity, pThr172/174 dephosphorylation; type: biochemical; settings: PP2Aα concentration for half-maximal dephosphorylation, absence of activator, read-out: PP2Aα sensitivity dEC50
T11 construct: AMPK α1-kinase domain (α1-KD; residues 18–293); 6X-His (N); made in house; host or cells: E. coli BL21-CodonPlus (DE3)-RIPL (pET28a)
Protocol: (§5) Test compound was previously diluted in half-log increments, starting at 40 μM in 100% DMSO, diluted 10-fold in assay buffer and dispensed into a microtitre plate. After 15 min at room temperature, phosphatase was added to the mixture and the reaction was allowed to proceed for 60 min at room temperature. Reactions were quenched by the addition of okadaic acid, and transferred to PVDF membrane using the slot-blot apparatus and subjected to immunoblotting. Phosphatase sensitivity was similarly assessed by subjecting pAMPK to a phosphatase (PP2Aα) treatment using various concentrations and incubation times. The concentration of phosphatase was expressed as nmol of PP2Aα per minute per nmol of pAMPK in the reaction.
(§6) The membrane was blocked with Western Blot Blocking Buffer Reagent (Li-Cor) for 3–4 h at room temperature. The blot was probed using a rabbit α-pThr^172/174-specific antibody (Cell Signaling 40H9) at 1:500 dilution for 2 h and washed three times using 1 × PBS/0.1% Tween 20 (42°C pre-warmed wash buffer). Following the wash step, goat anti-rabbit 800CW (Rockland) at 1:10000 dilution was used as a secondary antibody. Blots were visualized using the Li-Cor Odyssey infrared imaging system and signal quantification was performed using the Odyssey software. The pEC50 values (estimated concentration of activator required for half-maximal protection of pThr^172/174 from PP2α) were calculated using GraphPad Prism software.
(§7) We then examined the sensitivity of phospho-α-Thr^172/174 (pThr^172/174) for dephosphorylation by phosphatase (PP2Aα) in the absence of allosteric modulators. The extent of dephosphorylation was measured using an antibody specific to α-pThr^172/174 as described in ‘Experimental’ section. […] The presence of the regulatory subunits (β and γ) leads to increased protection of pAMPK from dephosphorylation compared with the kinase domains alone (Figure 6). […] The dEC50 values for α2-containing isoforms were 40, 57 and 41 nM for α2β1γ1, α2β2γ1 and α2β2γ3 respectively; 13- to 18-fold right-shifted compared with that for isolated α2-kinase domain (Figure 6).
(§8) Figure 6 Phosphatase (PP2Aα) sensitivity of AMPK isoforms Effect of phosphatase (PP2Aα) on pThr^172/174 dephosphorylation of AMPK isoforms in the absence of activators is shown. Data are mean (n=2), and curves were generated using best-fit values.

AMPK α1β2γ3 [6] = target: T7, AMPK α1β2γ3; test: as above; type: biochemical; settings: PP2Aα concentration for half-maximal dephosphorylation, absence of activator, read-out: PP2Aα sensitivity dEC50
Protocol: as §5, §6, §7, §8

[7] = target: T12, AMPK α2-kinase domain (α2-KD) (Homo sapiens, UniProt P54646); test: as above; type: biochemical; settings: PP2Aα concentration for half-maximal dephosphorylation, absence of activator, read-out: PP2Aα sensitivity dEC50
T12 construct: α2-kinase domain (α2-KD; residues 7–282); 6X-His (N); made in house; host or cells: E. coli BL21-CodonPlus (DE3)-RIPL (pET28a)
Protocol: as §5, §6, §7, §8

AMPK α2β1γ1 [8] = target: T8, AMPK α2β1γ1; test: as above; type: biochemical; settings: PP2Aα concentration for half-maximal dephosphorylation, absence of activator, read-out: PP2Aα sensitivity dEC50
Protocol: as §5, §6, §7, §8

AMPK α2β2γ1 [9] = target: T9, AMPK α2β2γ1; test: as above; type: biochemical; settings: PP2Aα concentration for half-maximal dephosphorylation, absence of activator, read-out: PP2Aα sensitivity dEC50
Protocol: as §5, §6, §7, §8

AMPK α2β2γ3 [10] = target: T10, AMPK α2β2γ3; test: as above; type: biochemical; settings: PP2Aα concentration for half-maximal dephosphorylation, absence of activator, read-out: PP2Aα sensitivity dEC50
Protocol: as §5, §6, §7, §8

[11] = presence of Mg2+ and 25 nM Stau, cell spans KD1 and KD2, read-out: KD (single measurable binding affinity)
[12] = presence of Mg2+, cell spans KD1 and KD2, read-out: KD (single measurable binding affinity)
[13] = tighter site, absence of Mg2+ and Stau, read-out: KD1
[14] = weaker site, absence of Mg2+ and Stau, read-out: KD2

T1 sequence (Q13131 whole entry): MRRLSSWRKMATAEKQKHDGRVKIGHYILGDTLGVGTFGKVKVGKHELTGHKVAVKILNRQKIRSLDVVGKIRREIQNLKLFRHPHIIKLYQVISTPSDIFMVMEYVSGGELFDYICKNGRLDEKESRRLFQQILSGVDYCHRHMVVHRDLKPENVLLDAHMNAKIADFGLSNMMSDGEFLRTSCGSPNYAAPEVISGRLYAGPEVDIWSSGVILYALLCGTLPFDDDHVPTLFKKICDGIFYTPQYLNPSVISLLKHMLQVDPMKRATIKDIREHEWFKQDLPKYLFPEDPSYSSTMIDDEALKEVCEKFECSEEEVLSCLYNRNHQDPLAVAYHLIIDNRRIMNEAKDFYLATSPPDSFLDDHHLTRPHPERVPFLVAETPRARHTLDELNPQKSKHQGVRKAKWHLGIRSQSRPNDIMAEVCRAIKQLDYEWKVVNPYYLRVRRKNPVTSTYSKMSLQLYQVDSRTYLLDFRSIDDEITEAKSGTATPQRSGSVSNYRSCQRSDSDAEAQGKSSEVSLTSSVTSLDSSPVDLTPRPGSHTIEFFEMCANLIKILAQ
T1 sequence (Q9Y478 whole entry): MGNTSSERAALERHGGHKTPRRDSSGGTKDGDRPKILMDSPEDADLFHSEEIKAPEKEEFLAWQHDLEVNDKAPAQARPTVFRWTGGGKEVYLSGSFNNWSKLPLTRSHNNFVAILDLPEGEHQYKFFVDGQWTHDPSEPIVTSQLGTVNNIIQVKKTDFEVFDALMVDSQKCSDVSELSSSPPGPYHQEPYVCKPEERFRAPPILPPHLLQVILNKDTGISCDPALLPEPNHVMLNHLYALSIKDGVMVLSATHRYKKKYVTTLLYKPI
T1 sequence (P54619 whole entry): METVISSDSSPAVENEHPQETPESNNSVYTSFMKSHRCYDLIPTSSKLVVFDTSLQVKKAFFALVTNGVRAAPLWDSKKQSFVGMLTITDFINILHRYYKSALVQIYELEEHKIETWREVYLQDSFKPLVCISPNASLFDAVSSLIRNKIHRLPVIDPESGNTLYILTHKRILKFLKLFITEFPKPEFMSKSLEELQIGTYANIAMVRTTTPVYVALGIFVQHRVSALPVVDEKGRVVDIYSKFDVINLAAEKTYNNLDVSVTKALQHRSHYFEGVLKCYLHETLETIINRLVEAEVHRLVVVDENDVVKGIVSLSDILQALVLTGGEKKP
T3 sequence (Q13131 whole entry): as the sequence (Q13131 whole entry) above
T3 sequence (O43741 whole entry): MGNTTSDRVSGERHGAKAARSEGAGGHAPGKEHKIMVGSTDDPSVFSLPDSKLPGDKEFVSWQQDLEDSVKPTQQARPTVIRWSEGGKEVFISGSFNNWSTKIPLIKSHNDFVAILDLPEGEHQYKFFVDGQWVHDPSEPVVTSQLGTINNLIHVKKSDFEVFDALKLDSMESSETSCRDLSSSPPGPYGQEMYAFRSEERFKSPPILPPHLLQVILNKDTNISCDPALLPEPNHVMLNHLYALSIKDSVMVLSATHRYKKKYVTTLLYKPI
T3 sequence (P54619 whole entry): as the sequence (P54619 whole entry) above
T4 sequence (P54646 whole entry): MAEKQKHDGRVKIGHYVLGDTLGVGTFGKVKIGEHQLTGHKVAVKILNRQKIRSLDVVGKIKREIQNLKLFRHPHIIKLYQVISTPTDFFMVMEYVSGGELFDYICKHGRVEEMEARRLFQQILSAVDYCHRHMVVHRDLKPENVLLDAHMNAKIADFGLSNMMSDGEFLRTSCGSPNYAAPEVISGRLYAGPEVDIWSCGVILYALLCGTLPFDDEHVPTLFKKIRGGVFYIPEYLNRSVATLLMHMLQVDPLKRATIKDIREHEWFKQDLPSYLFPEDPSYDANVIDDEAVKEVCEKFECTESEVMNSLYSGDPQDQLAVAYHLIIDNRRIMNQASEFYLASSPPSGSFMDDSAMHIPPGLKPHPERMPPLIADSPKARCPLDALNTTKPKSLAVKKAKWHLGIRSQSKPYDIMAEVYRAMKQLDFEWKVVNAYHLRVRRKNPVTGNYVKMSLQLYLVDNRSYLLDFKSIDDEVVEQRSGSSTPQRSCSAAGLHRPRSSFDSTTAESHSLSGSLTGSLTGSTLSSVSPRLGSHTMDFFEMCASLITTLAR
T4 sequence (O43741 whole entry): as the sequence (O43741 whole entry) above
T4 sequence (Q9UGI9 whole entry): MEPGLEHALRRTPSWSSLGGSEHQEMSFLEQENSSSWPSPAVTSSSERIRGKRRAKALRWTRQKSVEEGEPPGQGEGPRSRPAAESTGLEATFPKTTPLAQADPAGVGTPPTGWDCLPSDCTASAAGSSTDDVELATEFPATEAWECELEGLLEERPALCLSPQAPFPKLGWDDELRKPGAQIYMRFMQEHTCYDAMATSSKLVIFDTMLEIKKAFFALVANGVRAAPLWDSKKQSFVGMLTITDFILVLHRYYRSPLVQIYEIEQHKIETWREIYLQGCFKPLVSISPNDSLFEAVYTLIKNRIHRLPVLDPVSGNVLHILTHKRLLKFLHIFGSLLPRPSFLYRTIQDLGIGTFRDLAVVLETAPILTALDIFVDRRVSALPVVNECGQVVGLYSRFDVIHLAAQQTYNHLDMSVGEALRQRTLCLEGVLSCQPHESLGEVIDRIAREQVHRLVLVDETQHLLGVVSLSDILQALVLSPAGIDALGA
T2 sequence (P54646 whole entry): as the sequence (P54646 whole entry) above
T2 sequence (O43741 whole entry): as the sequence (O43741 whole entry) above
T2 sequence (P54619 whole entry): as the sequence (P54619 whole entry) above
T7 sequence (Q13131 whole entry): as the sequence (Q13131 whole entry) above
T7 sequence (O43741 whole entry): as the sequence (O43741 whole entry) above
T7 sequence (Q9UGI9 whole entry): as the sequence (Q9UGI9 whole entry) above
T8 sequence (P54646 whole entry): as the sequence (P54646 whole entry) above
T8 sequence (Q9Y478 whole entry): as the sequence (Q9Y478 whole entry) above
T8 sequence (P54619 whole entry): as the sequence (P54619 whole entry) above
T10 sequence (P54646 whole entry): as the sequence (P54646 whole entry) above
T10 sequence (O43741 whole entry): as the sequence (O43741 whole entry) above
T10 sequence (Q9UGI9 whole entry): as the sequence (Q9UGI9 whole entry) above
T9 sequence (P54646 whole entry): as the sequence (P54646 whole entry) above
T9 sequence (O43741 whole entry): as the sequence (O43741 whole entry) above
T9 sequence (P54619 whole entry): as the sequence (P54619 whole entry) above
T6 sequence (Q13131 whole entry): as the sequence (Q13131 whole entry) above
T6 sequence (O43741 whole entry): as the sequence (O43741 whole entry) above
T6 sequence (P54619 whole entry): as the sequence (P54619 whole entry) above
T5 sequence (Q13131 whole entry): as the sequence (Q13131 whole entry) above
T5 sequence (Q9Y478 whole entry): as the sequence (Q9Y478 whole entry) above
T5 sequence (P54619 whole entry): as the sequence (P54619 whole entry) above
T11 sequence (Q13131 18-293): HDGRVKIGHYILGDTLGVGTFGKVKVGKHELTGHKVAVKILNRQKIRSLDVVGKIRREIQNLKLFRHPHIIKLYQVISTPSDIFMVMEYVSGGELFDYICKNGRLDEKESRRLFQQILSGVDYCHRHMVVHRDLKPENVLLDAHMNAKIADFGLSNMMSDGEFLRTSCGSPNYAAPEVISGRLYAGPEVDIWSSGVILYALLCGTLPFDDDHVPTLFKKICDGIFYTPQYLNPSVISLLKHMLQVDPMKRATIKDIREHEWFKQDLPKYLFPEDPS
T12 sequence (P54646 7-282): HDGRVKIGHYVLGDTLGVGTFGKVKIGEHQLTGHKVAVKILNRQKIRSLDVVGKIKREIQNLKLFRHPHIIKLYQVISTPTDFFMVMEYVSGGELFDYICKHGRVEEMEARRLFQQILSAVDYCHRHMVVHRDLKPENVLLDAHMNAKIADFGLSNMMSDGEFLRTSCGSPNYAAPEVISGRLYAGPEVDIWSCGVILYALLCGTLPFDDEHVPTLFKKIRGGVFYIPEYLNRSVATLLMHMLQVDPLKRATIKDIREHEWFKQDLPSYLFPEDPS

Nc1ncnc2c1ncn2[C@@H]1O[C@H](COP(=O)(O)OP(=O)(O)OP(=O)(O)O)[C@@H](O)[C@H]1O [ATP]
Kd (BAP-tagged AMPK α1β1γ1; [11]): 300 ± 10 µM | Kd (BAP-tagged AMPK α1β1γ1; [12]): 130 ± 1 µM | Kd (BAP-tagged AMPK α1β1γ1; [13]): 1.35 ± 0.02 µM | Kd (BAP-tagged AMPK α1β1γ1; [14]): 2260 ± 90 µM | Kd (BAP-tagged AMPK α2β2γ1; [11]): 133 ± 4 µM | Kd (BAP-tagged AMPK α2β2γ1; [12]): 95 ± 1 µM | Kd (BAP-tagged AMPK α2β2γ1; [13]): 0.92 ± 0.03 µM | Kd (BAP-tagged AMPK α2β2γ1; [14]): 2900 ± 200 µM | Kd (BAP-tagged AMPK α1β2γ1; [11]): 400 ± 20 µM | Kd (BAP-tagged AMPK α1β2γ1; [12]): 95 ± 1 µM | Kd (BAP-tagged AMPK α1β2γ1; [13]): 1.1 ± 0.04 µM | Kd (BAP-tagged AMPK α1β2γ1; [14]): 3400 ± 300 µM | Kd (BAP-tagged AMPK α2β2γ3; [11]): 540 ± 20 µM | Kd (BAP-tagged AMPK α2β2γ3; [12]): 277 ± 4 µM | Kd (BAP-tagged AMPK α2β2γ3; [13]): 7.6 ± 0.6 µM | Kd (BAP-tagged AMPK α2β2γ3; [14]): 3500 ± 300 µM | Km (AMPK α1β1γ1): 26 ± 5.6 µM | Km (AMPK α1β2γ1): 45.1 ± 5.8 µM | Km (AMPK α1β2γ3 [1]): 333 ± 65 µM | Km (AMPK α2β1γ1 [2]): 31.4 ± 9.3 µM | Km (AMPK α2β2γ1 [3]): 48 ± 5 µM | Km (AMPK α2β2γ3 [4]): 417 ± 39 µM | Kd (full-length, pAMPK; read-out: equilibrium dissociation constant, stronger binding site): 18 µM | Kd (full-length, pAMPK; read-out: equilibrium dissociation constant, weaker binding site): 230 µM

PP2Aα: Human recombinant protein phosphatase 2Aα catalytic subunit expressed in insect cells
EC50 [5]: 0.0032 µM | EC50 (AMPK α1β2γ3 [6]): 0.441 µM | EC50 [7]: 0.0013 µM | EC50 (AMPK α2β1γ1 [8]): 0.04 µM | EC50 (AMPK α2β2γ1 [9]): 0.057 µM | EC50 (AMPK α2β2γ3 [10]): 0.041 µM
